Key:
MDA-MB cells [1] = assay: Pro-apoptotic gene expression by RT-PCR; format: cell-based, human; details: 10^−6 M
Description: MDA-MB cells were treated daily with 10^−6M of tetrac or nano-tetrac in bellows perfusion culture system. Cells were harvested after 3 days of treatment and total RNA was extracted. RT-PCR was conducted as described in Example 1, infra.
Total RNA was isolated as described previously. (See Lin et al., 2008. Carcinogenesis. 29:62-69). First strand complementary DNAs were synthesized from 1 μg of total RNA using oligo dT and AMV Reverse Transcriptase (Promega, Madison, Wis.). First-strand cDNA templates were amplified for GAPDH, c-fos, PIG3, c-Jun, and BAD mRNAs by polymerase chain reaction (PCR), using a hot start (Ampliwax, Perkin Elmer, Foster City, Calif.). Primer sequences were GAPDH [5′-[…]-3′ (forward) (SEQ ID NO: 1) and 5′-[…]-3′ (reverse) (SEQ ID NO:2)], c-fos [5′-[…]-3′(forward) (SEQ ID NO:3) and 5′-CAGTCA-[…]-3′ (reverse) (SEQ ID NO:4)], PIG3 [5′-[…]-[…]-3′(forward) (SEQ ID NO:5) and 5′-[…]-3′ (reverse) (SEQ ID NO:6)], c-jun [5′-[…]-3′ (forward) (SEQ ID NO:7) and 5′-[…]-3′ (reverse) (SEQ ID NO:8)] and BAD [5′-GTT-[…]-3′ (forward) (SEQ ID NO:9) and 5′-[…]-3′ (reverse) (SEQ ID NO:10)]. The PCR cycle was an initial step of 95° C. for 3 min, followed by 94° C. for 1 min, 55° C. for 1 min, 72° C. for 1 min, then 25 cycles and a final cycle of 72° C. for 8 min. […] Photographs were scanned under direct light for quantitation and illustration. […]

[2] = test system: monkey kidney epithelial CV-1 cells; assay: Proliferation of non-malignant cells; format: cell-based, African green monkey; details: 10^−6M daily for 7 days
Description: FIG. 9 is a series of graphs showing the comparison of nano-tetrac and tetrac on cell proliferation in non-malignant cells. CV-1 cells (FIG. 9A) and 293 T cells (FIG. 9B) were treated daily with 10^−6 M tetrac or nano-tetrac. Cells were harvested at the time points indicated. Total cell numbers taken after each treatment were used as an indicator for tetrac- or nano-tetrac-induced anti-proliferation.
In order to confirm that tetrac and nano-tetrac only suppress cell proliferation in cancer cells, tetrac and nano-tetrac were also examined for potential anti-proliferative effects on immortalized non-malignant cells, using monkey kidney epithelial CV-1 cells and human embryonic kidney 293T cells. The cells were treated daily with either 10^−6M tetrac or 10^−6M nano-tetrac for 7 days, then were harvested, counted and examined microscopically.

TGS112T cells = assay: Cell proliferation by cell counting; format: cell-based, human; details: treated daily with 10^−6 M
Description: FIG. 6 is a series of graphs showing the effects of tetrac and nano-tetrac in human adenoid cystic carcinoma (TGS112T). In FIG. 6A, TGS112T cancer cells were treated with 10^−7M T4 in the presence or absence of 10^−7M tetrac for 24 h. T4-induced PCNA expression was inhibited by tetrac. In FIG. 6B, TGS112T cancer cells were treated with 10^−7 M T4 in the presence or absence of 10^−7 M tetrac or nano-tetrac, daily and 1 μCi [^3H]-thymidine (final concentration, 13 nM) was added for 24 h. […] In FIG. 6C, TGS112T cells were treated daily with 10^−6 M tetrac or nano-tetrac. Cells were harvested at the time points as indicated. Total cell numbers taken after each treatment were used as indicator for tetrac- or nano-tetrac-induced anti-proliferation.
Human adenoid cystic carcinoma TGS112T cells were cultured in medium that contained 0.25% hormone-stripped serum for 2 d and then treated with 10^−7 M tetrac or nano-tetrac for 30 min prior institution of 10^−7 M T4 treatment for 24 h. Nuclear proteins were separated by SDS-PAGE followed by western blot analysis with proliferating-cell nuclear antigen (PCNA) antibody. Thyroid hormone-induced PCNA accumulation was inhibited by tetrac. (See FIG. 6A). […] (See FIG. 6A). Inhibition of thyroid hormone-induced proliferation was confirmed by inhibition by tetrac and nano-tetrac of thyroid hormone-induced accumulation and [^3H]-thymidine incorporation. […]

MDA-MB cells [3] = assay: Apoptosis by flow cytometry (FACS) in perfusion bellows culture; format: cell-based, human; details: for induced apoptosis compared to untreated control: day 2
Description: MDA-MB cells grown in perfusion bellows cell culture were treated with different concentrations of tetrac (10^−7 M to 10^−5 M) daily. Cells were harvested on the day indicated. Two million cells of each sample were prepared for flow cytometry. Flow cytometry was conducted as described in Example 1, infra.
Cells were harvested from flakes by trypsinization, washed with PBS and were resuspended in 200 μL PBS (1×10^5-1×10^6 cells). To quantify cellular DNA content, cells were permeabilized by fixation with 70% ethanol for 30 min at 4° C. Samples can be stored in 70% ethanol at −20° C. for several weeks prior to propidium iodide (PI) staining and flow cytometric analysis. If cellular DNA quantification was performed on the same day of cell harvest, the cells were washed after permeabilization in PBS and resuspended in 500 μL PBS. Then 2.5 μL RNase (DNase-free) was added to the cell suspension and incubation was carried out at 37° C. for 30 min. The cell suspension was chilled on ice to 4° C. and 50 μL propidium iodide (PI) was added to the cell suspension. Samples were then kept in the dark at room temperature for 30 min, after which they were subjected to flow cytometry. Samples were analyzed on FACSCalibur™ (Becton Dickinson), using CellQuest software to determine DNA content. Fluorescence-activated cell sorting (FACS) analysis was performed using Annexin V-FITC and PI. The relative percentages of cells in G1, S, or G2/M phase were calculated from FL-2 histograms using ModFit LT software.
Cells were harvested for FACS analysis 1-5 d after treatment with 10^−7 to 10^−5 M tetrac. […] (See FIG. 7). By day 2, tetrac, 10^−7M and 10^−6M, induced apoptosis by 2.5-fold as compared to untreated control. Similar results were obtained after 4 d of treatment of tetrac. […] (See FIG. 7).

O=C(O)Cc1cc(I)c(Oc2cc(I)c(O)c(I)c2)c(I)c1 [tetrac, Tetraiodothyroacetic acid]
expression of c-fos (MDA-MB cells [1]): increased expression
expression of c-jun (MDA-MB cells [1]): increased expression
change in cell numbers and morphology vs untreated control [2]: no significant change
cell count after 7 d (TGS112T cells): 3.65×10^8 cells
increase of apoptotic cells compared to untreated control cells (MDA-MB cells [3]; 10^−5 M, 1 d): 10 fold
induced apoptosis compared to untreated control (MDA-MB cells [3]; 10^−6M): 2.5 fold
induced apoptosis compared to untreated control (MDA-MB cells [3]; 10^−7M): 2.5 fold

— patent publication US9180107B2 (NANOPHARMACEUTICALS LLC, priority 2009, dated 2015)
